Assay results reported in patent US6682545B1, “System and device for preventing restenosis in body vessels” (The Penn State Research Foundation, priority 1999, dated 2004).
“Also recorded” adds a separate entry of the source.

Experiments:
neointimal hyperplasia = test: Angioplasty-induced injury, other cell-permeable ceramide derivatives; details: in vivo
From the text: Other cell-permeable ceramide derivatives can also limit neointimal hyperplasia.

[1] = tested on: restenotic lesions after balloon angioplasty; test: Restenosis after balloon angioplasty, ceramide delivered in solution by infusion-type catheter; format: in vivo
From the text: It is noted that infusion-type catheters have the advantage to deliver ceramide in a BSA vehicle at a discrete dose to the site of arterial injury. It was thus determined whether ceramide delivered by solution using an infusion-type catheter is also effective in reducing restenosis as ceramide delivered using a catheter with a gel coated balloon tip. The balloon at the tip of a 4F arterial bilumen irrigation embolectomy catheter was inflated to a diameter equivalent to that of the earlier experiments. Three infusions of 10 μM C6-ceramide for 1 minute each reduced restenosis after balloon angioplasty by 39%. Dihydro-C6-ceramide at an equivalent dose had no effect upon restenotic lesions. These studies further support the novelty and efficacy of ceramide-coated balloon catheters as intra-arterial site-specific delivery devices.

[2] = tested on: PCNA positive vascular smooth muscle cells; test: PCNA immunohistochemistry of carotid arteries after angioplasty; format: in vivo, rabbit; details: neointimal layer, coated balloon-injured carotid artery (balloon-injured 2.8%±0.1%, control 0.2%±0.1%)
From the text: The effects of ceramide treatment upon VSM cell growth in vivo were also investigated. Imunohistochemical techniques were employed to identify VSM using smooth muscle cell-specific actin antibody (FIGS. 4A-B) and cell growth using proliferating cell nuclear antigen (PCNA) antibody (FIGS. 4C-F). […] PCNA is synthesized in early G1 and S phases of the cell cycle, and thus can be used as a marker for cell proliferation. In FIGS. 4C-F, representative photomicrographs depicting PCNA positive staining are shown for control, balloon-injured, ceramide-treated and dihydroceramide-treated carotid arteries, respectively. […] C6-ceramide (0.6%±0.2%) but not dihydro-C6-ceramide (1.9%±0.3%) diminished the number of PCNA positive cells in the neointimal layer but not in the medial layer of the carotid artery.
Specifically, in FIG. 4, ceramide-treated catheters reduced PCNA expression in vascular smooth muscle cells after angioplasty. Smooth muscle actin expression was analyzed by immunohistochemistry utilizing a monoclonal anti-alpha smooth muscle antibody, and PCNA positive cell numbers were assessed with a primary mouse monoclonal IgG2a antibody for PCNA. […] These immunohistochemical micrographs are representative of four separate experiments. […]

[3] = tested on: neointimal hyperplasia in rabbit carotid arteries; test: Restenosis after balloon angioplasty with ceramide-coated embolectomy catheter balloon; format: in vivo, New Zealand white rabbits; details: rabbit carotid artery, 2 weeks post balloon injury
From the text: Experiments were designed to evaluate the therapeutic potential of ceramide-coated embolectomy catheters upon restenosis after balloon angioplasty. Initial studies assessed the extent of restenosis in rabbit carotid arteries after balloon angioplasty as a function of time. Animals were sacrificed 1, 2, 4 and 6 weeks after balloon injury. Marked neointimal hyperplasia was observed as early as 1 week and peaked at 4 weeks (FIG. 2A). […] FIGS. 2B-E illustrate hematoxylin and eosin stained cryostat sections of rabbit carotid arteries. […] Furthermore, it may be theorized that the effects of ceramide are due to biochemical actions and not lipophilic properties.
Initial experiments optimized the methods to induce restenosis after angioplasty in carotid arteries from New Zealand white rabbits. Twenty-one rabbits were divided into three experimental groups, undergoing either balloon angioplasty with a vehicle-treated catheter, a C6-ceramide-treated catheter or a dihydro-C6-ceramide-treated catheter. Each rabbit underwent identical procedures to denude the common carotid artery of endothelium and establish the cellular conditions to promote restenosis. The right common carotid served as the sham control while the left carotid served as the experimental side. […] FIG. 2A represents the time course of restenosis after angioplasty while FIGS. 2B-2E depict representative H/E stained sections. […] The scale for these photomicrographs is 200 microns. FIG. 2F quantifies the extent of restenotic lesions.

[4] = tested on: restenosis / thrombus formation; test: Anticoagulation therapy (Lovenox) and thrombus formation with ceramide balloon angioplasty; format: in vivo; details: ceramide-treated balloon angioplasty
From the text: To prevent thrombus formation, patients routinely receive anti-coagulants prior to percutaneous transluminal coronary angioplasty. Thus, the consequences of anticoagulation therapy on the effectiveness of ceramide therapy were investigated.

[5] = tested on: A7r5 aortic smooth muscle cells; details: cited from earlier work
[6] = Ceramide transfer from balloon catheter to carotid artery ([3H]C6-ceramide tracer, TLC, in situ autoradiography); format: in vivo, rabbit
Procedure: The inability of experimentally effective therapies to succeed in clinical trials is often the consequence of sub-optimal doses of therapeutics being delivered to the site of injury for the appropriate duration. Moreover, the efficacy of therapy may be a consequence of biomechanical force transferring ceramide from the inflated balloon to the site of vascular lesions. Therefore, experiments were conducted to quantify ceramide transfer between the balloon and the carotid artery; the pharmacokinetics of ceramide transfer and delivery from the balloon catheter to the damaged artery was assessed. Using [^3H]C6-ceramide as a tracer, it was calculated that 70±10 nmol of C6-ceramide was applied to the balloon as a gel from a solution of 5 μmol of C6-ceramide. […] This translates to roughly 58 nmol of C6-ceramide being transferred from the balloon catheter during the angioplasty procedure. To test whether inflation of the balloon within the carotid artery was essential for optimal transfer of the ceramide, the surgical procedure was performed using noninflated balloons. The recovered ceramide mass on the inserted but noninflated balloon was 14±3 nmol. Rabbit carotid arteries treated with radiolabeled lipid were homogenized, and lipid products were separated by thin-layer chromatography (TLC) (FIG. 3A). The mass of intact ceramide isolated 15 minutes after angioplasty was 2.7±0.4 nmol for inflated balloon treatments and 0.7±0.2 nmol for noninflated balloon treatments. […] As the transferred ceramide was initially delivered to 0.0365 cm^3 of carotid artery luminal volume, the effective concentration of ceramide at the site of balloon injury is estimated to be 1.5 mmol/L. Thus, an effective and reproducible dose of ceramide can be delivered to the damaged artery as a consequence of the balloon inflation.
In situ autoradiography was utilized to document arterial penetrance for [^3H]C6-ceramide transferred from the balloon catheter after angioplasty (FIGS. 3B through 3D). […] This increase in pixel intensity reflects an increase in intact ceramide, as at this time point 89±4% of the radiolabel comigrates with authentic C6-ceramide standards. Pixel intensity was more intense in inflated (panel C) versus noninflated (panel D) arteries. Expressed as pixel density per square millimeter for 10 randomly selected blocks with background values subtracted, medial staining was increased 4.7±0.2-fold for ceramide-coated inflated versus noninflated balloons. Again, this supports the conclusion that balloon inflation leads to maximal delivery and penetrance.
The degradation of the rapidly intercalated radiolabeled ceramide by TLC was also assessed. For the 15-minute postangioplasty time point, 89±4% of the TLC-separated lipid comigrated with authentic C6-ceramide standards. This corresponded to a recovered mass of 2.7±0.4 mnol of ceramide. At 60 minutes after angioplasty, 1.3±0.6 nmol of ceramide was recovered. Thus, 50% radiolabel can still be recovered as intact ceramide in 1 hour. This decrease in ceramide mass corresponded to an increase in TLC-separated gangliosides and cerebrosides but not sphingosines.

ERK2 = ERK2 phosphorylation in excised carotid arteries after angioplasty (Western blot); format: in vivo; details: ceramide-coated balloon angioplasty, rabbit carotid arteries
Procedure: (§1) Thus, to elucidate mechanisms by which ceramide prevents restenosis, the phosphorylation states of ERK2 and PKBα were investigated using freshly excised carotid arteries after angioplasty (FIG. 5). Phosphorylation of ERK2 and PKBα were increased at 15 minutes and 24 hours post-balloon injury. The sustained phosphorylation of these kinases most likely reflects continuous remodeling of damaged arteries. […] Thus, acute ceramide therapy may directly modulate kinases or regulate putative ceramide-activated protein phosphatases that down-regulate these signaling pathways.
(§2) Specifically, in FIG. 5, ERK2 and PKBα phosphorylation was diminished after ceramide-coated balloon angioplasty in rabbit carotid arteries. Panel A depicts a representative Western blot for ERK-2 and PKBα probed using phosphorylation-specific antibodies. Lysates from NIH3T3 cells treated with or without PDGF were used as positive and negative controls, respectively. This immunoblot is representative of similar experiments using a total of 8 animals. Panels B-C quantifies the immunoblot data.

[7] = tested on: rat glomerular mesangial cells; details: cited from earlier work
PKBα = PKBα phosphorylation in excised carotid arteries after angioplasty (Western blot); format: in vivo; details: ceramide-coated balloon angioplasty, rabbit carotid arteries
Procedure: as §1, §2

[8] = tested on: primary VSM isolated from rabbit carotid arteries; test: Apoptosis by fluorescence-activated cell sorting after propidium iodide staining; format: cell-based; details: 100 nM
From the text: Ceramide treatment correlated with growth arrest at G0G1and not apoptosis in these smooth muscle-like pericytes. […] Thus, the therapeutic efficacy of cell-perneable ceramide in restenosis includes its ability to arrest VSM growth without inducing significant apoptosis.

[9] = 15 minutes after angioplasty, inflated balloon

Question: Which “effect on angioplasty-induced injury” value (neointimal hyperplasia) does the source give for `CCCCCCCCCCCCC/C=C/[C@@H](O)[C@H](CO)N(C)C` [dimethylsphingosine] here?
Answer: Its value is “effective in limiting angioplasty-induced injury”.

Question: What does the source list for `CCCCCCCCCCCCCCC[C@@H](O)[C@H](CO)NC(=O)CCCCC` [dihydro-C6-ceramide, reference compound]?
Answer: effect upon restenotic lesions ([1]; equivalent dose): had no effect; percentage of PCNA positive cells [2]: 1.9%±0.3%; effect on neointimal hyperplasia / restenosis after balloon injury [3]: did not reduce restenosis; effect on neointimal hyperplasia / restenosis after balloon injury ([3]; listed as dihydro-CC6-ceramide): not

Question: With `CCCCCCCCCCCCC/C=C/[C@@H](O)[C@H](CO)NC(=O)CCCCC` [C6-ceramide] as the compound, how does the thrombus formation [4] read?
Answer: Its thrombus formation is “Neither ceramide- nor vehicle-treated balloon angioplasty induced thrombus formation”.

Question: What about the “effect on tyrosine kinase receptor- and G-protein receptor-linked mitogenesis” value [5] of the same compound?
Answer: The value was “inhibit”.

Question: And the “reduction of restenosis after balloon angioplasty” value ([1]; three infusions of 10 μM for 1 minute each, BSA vehicle)?
Answer: The value was 39%.

Question: What about the “percentage of PCNA positive cells” value [2] of the same compound?
Answer: Its value is 0.6%±0.2%.

Question: And the “effective concentration of ceramide at the site of balloon injury” value ([6]; 0.0365 cm^3 carotid artery luminal volume)?
Answer: Its value is about 1.5 mmol/L.

Question: And the “recovered mass of ceramide” value ([6]; 15-minute postangioplasty time point)?
Answer: The value was 2.7±0.4 mnol.

Question: What about the “radiolabel comigrating with authentic C6-ceramide standards (TLC)” value ([6]; 15 minutes after angioplasty) of the same compound?
Answer: Its value is 89±4%.

Question: And the “mass of intact ceramide isolated from carotid artery” value [6, 9]?
Answer: Its value is 2.7 ± 0.4 nmol.

Question: And the “mass of intact ceramide isolated from carotid artery” value ([6]; 15 minutes after angioplasty, noninflated balloon)?
Answer: Its value is 0.7 ± 0.2 nmol.

Question: What about the “recovered mass of ceramide” value ([6]; 60 minutes after angioplasty) of the same compound?
Answer: The value was 1.3 ± 0.6 nmol.

Question: And the “amount remaining on the balloon” value ([6]; after insertion and inflation)?
Answer: Its value is 12 ± 2 nmol.

Question: And the “amount applied to the balloon as a gel” value ([6]; from a solution of 5 μmol of C6-ceramide, [3H] tracer)?
Answer: The value was 70 ± 10 nmol.

Question: And the “radiolabel recovered as intact ceramide” value ([6]; in 1 hour)?
Answer: Its value is 50%.

Question: And the “amount transferred from the balloon catheter during angioplasty” value ([6]; inflated balloon)?
Answer: Its value is “roughly 58 nmol”.

Question: What about the “recovered ceramide mass on the balloon” value ([6]; inserted but noninflated balloon) of the same compound?
Answer: The value was 14 ± 3 nmol.

Question: What about the “phosphorylation state of ERK2” value (ERK2) of the same compound?
Answer: Its value is “reduced below basal activation levels; also recorded: diminished”.

Question: And the “effect on neointimal hyperplasia / restenosis after balloon injury” value [3]?
Answer: The value was “significantly reduced the neointimal hyperplasia; also recorded: blocked neointimal hyperplasia”.

Question: And the “inhibition of balloon-induced neointimal formation (reduction of the neointimal/medial ratio)” value [3]?
Answer: Its value is 92%.

Question: What about the “effect on tyrosine kinase receptor- and G-protein receptor-linked mitogenesis” value [7] of the same compound?
Answer: The value was “inhibit”.

Question: What about the “phosphorylation state of PKBα” value (PKBα) of the same compound?
Answer: Its value is “reduced below basal activation levels; also recorded: diminished”.

Question: With `C=C1[C@@H](O)[C@@H]2O[C@]3(CC[C@H](/C=C/[C@@H](C)[C@@H]4CC(C)=C[C@@]5(O[C@H](C[C@@](C)(O)C(=O)O)CC[C@H]5O)O4)O3)CC[C@H]2O[C@@H]1[C@@H](O)C[C@H](C)[C@H]1O[C@@]2(CCCCO2)CC[C@H]1C` [okadaic acid] as the compound, how does the apoptosis ([8]; 24 hours) read?
Answer: The apoptosis was 52%.

Question: And the apoptosis ([8]; 40 hours)?
Answer: Its apoptosis is 69%±2%.

Question: Which results are given for [^3H]C6-ceramide [reference compound]?
Answer: radiolabel comigrating with authentic C6-ceramide standards (TLC) ([6]; 15 minutes after angioplasty): 89±4%; arterial penetrance (in situ autoradiography) [6, 9]: observed throughout the medial layers of the artery; increase in medial staining (pixel density per square millimeter), inflated versus noninflated balloons ([6]; autoradiography, 10 randomly selected blocks, background subtracted): 4.7±0.2 fold
